Drawing on ChEMBL document CHEMBL1208720, “N-Benzylsalicylthioamides as novel compounds with promising antimycotic activity” (2010), this text covers MIC and logMIC for six molecules.

Holding throughout (type): functional
Test [1] deals with Trichosporon asahii. The test is described as follows: Antifungal activity against Trichosporon asahii 1188 after 48 hrs by broth microdilution assay. Conditions: for MIC: Trichosporon asahii, 1188, 48 h.
Test [2] relates to Nakaseomyces glabratus. As to the kind of experiment: Antifungal activity against Candida glabrata 20/I after 24 hrs by broth microdilution assay. The following applies: for MIC: Nakaseomyces glabratus, 20/I, 24 h.
Test [3] relates to Trichosporon asahii. The test is described as follows: Antifungal activity against Trichosporon asahii 1188 after 24 hrs by broth microdilution assay. The following applies: for MIC: Trichosporon asahii, 1188, 24 h.
Test [4] concerns Trichophyton mentagrophytes. The test is described as follows: Antifungal activity against Trichophyton mentagrophytes 445 after 120 hrs by broth microdilution assay. Conditions: for MIC: Trichophyton mentagrophytes, 445, 120 h.
For test [5], the system named is Nakaseomyces glabratus. The test is described as follows: Antifungal activity against Candida glabrata 20/I after 48 hrs by broth microdilution assay. The following applies: for MIC: Nakaseomyces glabratus, 20/I, 48 h.
The subject of test [6] is Candida tropicalis. The test is described as follows: Antifungal activity against Candida tropicalis 159 after 48 hrs by broth microdilution assay. Conditions: for MIC: Candida tropicalis, 159, 48 h.
The test system of test [7] is Candida tropicalis. The test is described as follows: Antifungal activity against Candida tropicalis 159 after 24 hrs by broth microdilution assay. The following applies: for MIC: Candida tropicalis, 159, 24 h.
Test [8] deals with Pichia kudriavzevii. As to the kind of experiment: Antifungal activity against Candida krusei E28 after 24 hrs by broth microdilution assay. Conditions: for MIC: Pichia kudriavzevii, E28, 24 h.
Test [9] relates to Candida albicans. The test is described as follows: Antifungal activity against Candida albicans ATCC 44859 after 24 hrs by broth microdilution assay. Conditions: for MIC: Candida albicans, ATCC 44859, 24 h.
Test [10] deals with Candida albicans. As to the kind of experiment: Antifungal activity against Candida albicans ATCC 44859 after 48 hrs by broth microdilution assay. Conditions: for MIC: Candida albicans, ATCC 44859, 48 h.
Test [11] deals with Trichophyton mentagrophytes. The test is described as follows: Antifungal activity against Trichophyton mentagrophytes 445 after 72 hrs by broth microdilution assay. Conditions: for MIC: Trichophyton mentagrophytes, 445, 72 h.
Test [12] relates to Lichtheimia corymbifera. As to the kind of experiment: Antifungal activity against Absidia corymbifera 272 after 48 hrs by broth microdilution assay. Conditions: for MIC: Lichtheimia corymbifera, 272, 48 h.
In test [13] the test system is Aspergillus fumigatus. As to the kind of experiment: Antifungal activity against Aspergillus fumigatus 231 after 24 hrs by broth microdilution assay. Conditions: for MIC: Aspergillus fumigatus, 231, 24 h.
The test system of test [14] is Aspergillus fumigatus. As to the kind of experiment: Antifungal activity against Aspergillus fumigatus 231 after 48 hrs by broth microdilution assay. The following applies: for MIC: Aspergillus fumigatus, 231, 48 h.
Test [15] relates to Lichtheimia corymbifera. As to the kind of experiment: Antifungal activity against Absidia corymbifera 272 after 24 hrs by broth microdilution assay. Conditions: for MIC: Lichtheimia corymbifera, 272, 24 h.
Test [16] deals with Pichia kudriavzevii. The test is described as follows: Antifungal activity against Candida krusei E28 after 48 hrs by broth microdilution assay. The following applies: for MIC: Pichia kudriavzevii, E28, 48 h.

Molecules are shown by their SMILES. Values after ≈ are worked out from the molar mass of the structure shown.

Turning to `COc1ccc(C(=S)NCc2cccc(Cl)c2)c(O)c1`, the MIC was 62.5 µM (≈ 19.2 µg/mL) in test [1]; 250 µM (≈ 77 µg/mL) in [2]; 31.2 µM (≈ 9.62 µg/mL) in test [3]; 15.6 µM (≈ 4.81 µg/mL) in [4]; 500 µM (≈ 154 µg/mL) in test [5]; 250 µM (≈ 77 µg/mL) in test [6]. For the same molecule, the MIC in [7] is 125 µM (≈ 38.5 µg/mL); in [8] it was 125 µM (≈ 38.5 µg/mL); in test [9], 125 µM (≈ 38.5 µg/mL); in [10], 250 µM (≈ 77 µg/mL); in [11] it was 15.6 µM (≈ 4.81 µg/mL); in test [12], 7.81 µM (≈ 2.4 µg/mL). Also, the MIC was found to be 62.5 µM (≈ 19.2 µg/mL) in test [13], 125 µM (≈ 38.5 µg/mL) in test [14], 7.81 µM (≈ 2.4 µg/mL) in test [15] and 125 µM (≈ 38.5 µg/mL) in test [16].

In the case of `COc1ccc(O)c(C(=S)NCc2ccccc2)c1`, the logMIC was 2.4 in [1]; 2.4 in [2]; 2.1 in [3]; 1.8 in [4]; 2.4 in test [5]; 2.4 in [6]. In addition, the logMIC came to 2.4 in [7]; 2.4 in test [8]; 2.1 in test [9]; 2.4 in test [10]; 1.8 in test [11]; 2.1 in test [12]. In addition, the logMIC worked out at 2.4 in [13], 2.4 in [14], 1.49 in [15] and 2.4 in test [16].

As to `Oc1ccc(Cl)cc1C(=S)NCc1ccc(F)cc1`, the MIC in test [1] was 15.6 µM (≈ 4.62 µg/mL); in test [2] it was 62.5 µM (≈ 18.5 µg/mL); in test [3], 7.81 µM (≈ 2.31 µg/mL); in [4] it was 15.6 µM (≈ 4.62 µg/mL); in test [5], 125 µM (≈ 37 µg/mL); in test [6], 125 µM (≈ 37 µg/mL). In addition, the MIC in test [7] stood at 62.5 µM (≈ 18.5 µg/mL); in test [8], 7.81 µM (≈ 2.31 µg/mL); in test [9], 31.2 µM (≈ 9.24 µg/mL); in test [10], 125 µM (≈ 37 µg/mL); in test [11], 15.6 µM (≈ 4.62 µg/mL); in [12], 15.6 µM (≈ 4.62 µg/mL). The MIC came to 31.2 µM (≈ 9.24 µg/mL) in test [13], 15.6 µM (≈ 4.62 µg/mL) in test [14], 15.6 µM (≈ 4.62 µg/mL) in [15] and 15.6 µM (≈ 4.62 µg/mL) in test [16].

For the molecule `Cc1cccc(CNC(=S)c2ccccc2O)c1`, the MIC is 62.5 µM (≈ 16.1 µg/mL) in [1]; 125 µM (≈ 32.2 µg/mL) in test [2]; 31.2 µM (≈ 8.04 µg/mL) in [3]; 15.6 µM (≈ 4.02 µg/mL) in test [4]; 250 µM (≈ 64.3 µg/mL) in test [5]; 250 µM (≈ 64.3 µg/mL) in test [6]. In addition, the MIC was determined as 125 µM (≈ 32.2 µg/mL) in [7]; 125 µM (≈ 32.2 µg/mL) in test [8]; 125 µM (≈ 32.2 µg/mL) in test [9]; 250 µM (≈ 64.3 µg/mL) in [10]; 15.6 µM (≈ 4.02 µg/mL) in test [11]; 15.6 µM (≈ 4.02 µg/mL) in test [12]. In addition, the MIC in [13] amounted to 62.5 µM (≈ 16.1 µg/mL); in test [14], 62.5 µM (≈ 16.1 µg/mL); in test [15] it was 62.5 µM (≈ 16.1 µg/mL); in test [16] it was 250 µM (≈ 64.3 µg/mL).

Regarding `Oc1ccc(Cl)cc1C(=S)NCc1ccc(Cl)c(Cl)c1`, the MIC in test [1] worked out at 7.81 µM (≈ 2.71 µg/mL); in test [2] it was 31.2 µM (≈ 10.8 µg/mL); in [3], 3.9 µM (≈ 1.35 µg/mL); in test [4] it was 0.98 µM (≈ 0.34 µg/mL); in test [5] it was 31.2 µM (≈ 10.8 µg/mL); in test [6] it was 62.5 µM (≈ 21.7 µg/mL). Besides, the MIC came out at 31.2 µM (≈ 10.8 µg/mL) in test [7]; 3.9 µM (≈ 1.35 µg/mL) in test [8]; 31.2 µM (≈ 10.8 µg/mL) in test [9]; 31.2 µM (≈ 10.8 µg/mL) in [10]; 0.98 µM (≈ 0.34 µg/mL) in test [11]; 7.81 µM (≈ 2.71 µg/mL) in test [12]. Moreover, the MIC in test [13] worked out at 3.9 µM (≈ 1.35 µg/mL); in test [14], 15.6 µM (≈ 5.41 µg/mL); in test [15], 3.9 µM (≈ 1.35 µg/mL); in [16], 15.6 µM (≈ 5.41 µg/mL).

Consider `Oc1ccccc1C(=S)NCc1cccc(Cl)c1`, for which the MIC in test [1] was 31.2 µM (≈ 8.68 µg/mL); in test [2], 125 µM (≈ 34.7 µg/mL); in test [3] it was 31.2 µM (≈ 8.68 µg/mL); in test [4], 15.6 µM (≈ 4.34 µg/mL); in [5], 250 µM (≈ 69.4 µg/mL); in test [6], 125 µM (≈ 34.7 µg/mL). Also, the MIC in test [7] was determined as 125 µM (≈ 34.7 µg/mL); in test [8], 62.5 µM (≈ 17.4 µg/mL); in test [9], 125 µM (≈ 34.7 µg/mL); in test [10], 125 µM (≈ 34.7 µg/mL); in test [11] it was 7.81 µM (≈ 2.17 µg/mL); in test [12] it was 31.2 µM (≈ 8.68 µg/mL). Also, the MIC came out at 62.5 µM (≈ 17.4 µg/mL) in test [13], 62.5 µM (≈ 17.4 µg/mL) in [14], 31.2 µM (≈ 8.68 µg/mL) in test [15] and 125 µM (≈ 34.7 µg/mL) in [16].
